Experimental findings from patent publication US8791267B2, “Biaryl PDE4 inhibitors for treating inflammatory, cardiovascular and CNS disorders” (Decode Genetics EHF, priority 2007, dated 2014) are described below.

Structures can show the parent of a compound that is named as a salt. A value given as a limit tells only on which side of the number the result lay.

The first experiment deals with PDE4 (Homo sapiens, UniProt Q08499). Put plainly: In-vitro assay for PDE4 enzymes, real-time enzyme-coupled spectrophotometric assay (Table 9). Format: biochemical.
Chain of PDE4 (Q08499 whole entry): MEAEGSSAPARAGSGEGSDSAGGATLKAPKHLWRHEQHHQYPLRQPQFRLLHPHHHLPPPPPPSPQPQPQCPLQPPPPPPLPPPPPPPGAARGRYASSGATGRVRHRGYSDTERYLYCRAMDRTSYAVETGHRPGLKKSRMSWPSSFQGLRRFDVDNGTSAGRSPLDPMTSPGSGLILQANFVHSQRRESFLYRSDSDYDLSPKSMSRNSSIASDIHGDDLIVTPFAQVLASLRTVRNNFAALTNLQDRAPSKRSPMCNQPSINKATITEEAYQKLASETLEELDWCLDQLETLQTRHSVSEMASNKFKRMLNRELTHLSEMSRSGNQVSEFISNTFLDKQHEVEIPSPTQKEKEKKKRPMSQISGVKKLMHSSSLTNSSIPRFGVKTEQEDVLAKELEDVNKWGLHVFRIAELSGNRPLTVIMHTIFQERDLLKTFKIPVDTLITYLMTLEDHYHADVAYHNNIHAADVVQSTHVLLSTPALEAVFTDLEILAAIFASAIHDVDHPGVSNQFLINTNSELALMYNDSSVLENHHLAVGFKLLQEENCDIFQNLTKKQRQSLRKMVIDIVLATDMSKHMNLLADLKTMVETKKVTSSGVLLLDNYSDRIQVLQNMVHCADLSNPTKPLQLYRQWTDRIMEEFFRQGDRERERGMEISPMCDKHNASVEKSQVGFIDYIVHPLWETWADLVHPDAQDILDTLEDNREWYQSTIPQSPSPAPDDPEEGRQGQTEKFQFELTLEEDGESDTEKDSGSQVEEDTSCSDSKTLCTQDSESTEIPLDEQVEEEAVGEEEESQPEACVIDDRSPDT
Details: not given
For `COc1ccc(Cc2ccc(CNC(=O)Oc3ccccc3)nc2)c(F)c1-c1cccc(Cl)c1` [P-520, [5-(3′-Chloro-2-fluoro-6-methoxy-biphenyl-3-ylmethyl)-pyridin-2-ylmethyl]-carbamic acid phenyl ester], the IC50 was under 5 µM.

Staying with this experiment, now noted: human PDE4D; activity class, Table 9; read-out: hPDE4D.
On to `COc1ccc(Cc2ccc(F)cc2)cc1-c1cccc(Cl)n1` [P-391, 2-Chloro-6-[5-(4-fluoro-benzyl)-2-methoxy-phenyl]-pyridine], for which the IC50 is under 5 µM.

Turning to `COc1ccc(Cc2ccc(F)cc2)cc1-n1ccc(C(F)(F)F)n1` [P-396, 1-[5-(4-Fluoro-benzyl)-2-methoxy-phenyl]-3-trifluoromethyl-1H-pyrazole], the IC50 is under 5 µM.

Turning to `COc1ccc(C=Cc2ccc(F)cc2)c(F)c1-c1cccc(Cl)c1` [P-418], the IC50 lay in the range of 5 to 20 µM.

As for `COc1ccc(Cc2ccc(N3CCNCC3)nc2)c(F)c1-c1cccc(Cl)c1` [P-423, 1-[5-(3′-chloro-2-fluoro-6-methoxy-biphenyl-3-ylmethyl)-pyridin-2-yl]-piperazine], the IC50 lay in the range of 5 to 20 µM.

With `CCOC(=O)N1CCN(c2ccc(Cc3ccc(OC)c(-c4cccc(Cl)c4)c3F)cn2)CC1` [P-431], the IC50 is under 5 µM.

On to `COc1ccc(C(=O)c2ccc(NC(N)=O)cc2)c(F)c1-c1cccc(Cl)c1` [P-434, [4-(3′-chloro-2-fluoro-6-methoxy-biphenyl-3-carbonyl)-phenyl]-urea], for which the IC50 was under 5 µM.

Consider `COc1ccc(Cn2cc(-c3ccc(NC(N)=O)cc3)cn2)c(F)c1-c1cccc(Cl)c1` [P-435], for which the IC50 is under 5 µM.

As to `CCNC(=O)Nc1ccc([S+]([O-])c2ccc(OC)c(-c3cccc(Cl)c3)c2)cc1` (stereo not drawn) [P-449, 1-[4-(3′-Chloro-6-methoxy-biphenyl-3-sulfinyl)-phenyl]-3-ethyl urea], the IC50 is under 5 µM.

Consider `CCNC(=O)Nc1ccc(S(=O)(=O)c2ccc(OC)c(-c3cccc(Cl)c3)c2)cc1` [P-450, 1-[4-(3′-Chloro-6-methoxy-biphenyl-3-sulfonyl)-phenyl]-3-ethyl-urea], for which the IC50 was under 5 µM.

As to `COc1ccc(Cc2ccc(Nc3nccs3)cc2)cc1-c1cccc(Cl)c1` [P-454, [4-(3′-Chloro-6-methoxy-biphenyl-3-ylmethyl)-phenyl]-thiazol-2-yl-amine], the IC50 was under 5 µM.

`COc1ccc(Cc2ccc(Nc3nccs3)cc2)c(F)c1-c1cccc(Cl)c1` [P-466]: the IC50 is under 5 µM.

Consider `COc1ccc(Cc2ccc(F)cc2)cc1-c1cccnc1` [P-474, 3-[5-(4-Fluoro-benzyl)-2-methoxy-phenyl]-pyridine], for which the IC50 is under 5 µM.

Consider `CNc1ccc(Cc2ccc(OC)c(-c3cccc(Cl)c3)c2)cc1` [P-476, [4-(3′-Chloro-6-methoxy-biphenyl-3-ylmethyl)-phenyl]-methyl-amine hydrochloric acid], for which the IC50 is under 5 µM.

In the case of `COc1ccc(Cc2cccc(NC(C)=O)c2)cc1-c1cccc(Cl)c1` [P-477, N-[3-(3′-Chloro-6-methoxy-biphenyl-3-ylmethyl)-phenyl]-acetamide], the IC50 was under 5 µM.

As to `COc1ccc(Cn2cnc3ccccc32)cc1-c1cccc([N+](=O)[O-])c1` [P-483, 1-(6-Methoxy-3′-nitro-biphenyl-3-ylmethyl)-1H-benzoimidazole], the IC50 was under 5 µM.

For `COc1ccc(Cn2cncn2)cc1-c1ccc2[nH]ccc2c1` [P-486, 5-(2-Methoxy-5-[1,2,4]triazol-1-ylmethyl-phenyl)-1H-indole], the IC50 was in the range of 20 to 40 µM.

For the compound `COc1ccc(CO)nc1-c1cccc([N+](=O)[O-])c1` [P-491, [5-methoxy-6-(3-nitro-phenyl)-pyridin-2-yl]-methanol], the IC50 was in the range of 20 to 40 µM.

Turning to `COc1ccc(CN2CCC[C@@H]2CO)cc1-c1cccc([N+](=O)[O-])c1` [P-493, [(R)-1-(6-Methoxy-3′-nitro-biphenyl-3-ylmethyl)-pyrrolidin-2-yl]-methanol], the IC50 was in the range of 20 to 40 µM.

With `COc1ccc(Cn2cncn2)cc1-c1cccc(S(C)(=O)=O)c1` [P-495, 1-(3′-Methanesulfonyl-6-methoxy-biphenyl-3-ylmethyl)-1H-[1,2,4]triazole], the IC50 lay within 20 to 40 µM.

Turning to `O=CNCc1ccccc1Cc1ccc(O)c(-c2cccc([N+](=O)[O-])c2)c1` [P-501, N-[2-(6-Hydroxy-3′-nitro-biphenyl-3-ylmethyl)-benzyl]-formamide], the IC50 lay within 5 to 20 µM.

As to `CCNC(=O)N1CCN(c2ccc(Cc3ccc(OC)c(-c4cccc(Cl)c4)c3F)cn2)CC1` [P-514, 4-[5-(3′-chloro-2-fluoro-6-methoxy-biphenyl-3-ylmethyl)-pyridin-2-yl]-piperazine-1-carboxylic acid ethylamide hydrochloride], the IC50 was under 5 µM.

Regarding `COc1ccc(Cn2cc(-c3ccncc3)cn2)c(F)c1-c1cccc(Cl)c1` [P-528, 4-[1-(3′-Chloro-2-fluoro-6-methoxy-biphenyl-3-ylmethyl)-1H-pyrazol-4-yl]-pyridine], the IC50 was under 5 µM.

On to `[2H]C(O)(c1ccc([N+](=O)[O-])cc1)c1ccc(OC)c(-c2cccc(Cl)c2)c1F` (stereo not drawn) [P-537, deutero-(3′-chloro-2-fluoro-6-methoxy-biphenyl-3-yl)-(4-nitro-phenyl)-methanol], for which the IC50 was under 5 µM.

Take `[2H]C(O)(c1ccc(N)cc1)c1ccc(OC)c(-c2cccc(Cl)c2)c1F` (stereo not drawn) [P-538, deutero-(4-amino-phenyl)-(3′-chloro-2-fluoro-6-methoxy-biphenyl-3-yl)-methanol]: the IC50 was under 5 µM.

Take `NC(=O)Nc1ccc(Cc2ccc(OCC3CCCO3)c(-c3cccc(Cl)c3)c2)cc1` (stereo not drawn) [P-543, {4-[3′-Chloro-6-(tetrahydro-furan-2-ylmethoxy)-biphenyl-3-ylmethyl]-phenyl}-urea]: the IC50 is under 5 µM.

Turning to `COc1ccc(Cn2cc(-c3ccncn3)cn2)c(F)c1-c1cccc(Cl)c1` [P-546, 4-[1-(3′-Chloro-2-fluoro-6-methoxy-biphenyl-3-ylmethyl)-1H-pyrazol-4-yl]-pyrimidine hydrochloride salt], the IC50 is under 5 µM.

As to `CN(C)CCOc1ccc(Cc2ccc(NC(N)=O)cc2)cc1-c1cccc(Cl)c1` [P-548, {4-[3′-Chloro-6-(2-dimethylamino-ethoxy)-biphenyl-3-ylmethyl]-phenyl}-urea], the IC50 was in the range of 5 to 20 µM.

As for `COc1ccc(Cn2nc(C(F)(F)F)cc2-c2cccnc2)c(F)c1-c1cccc(Cl)c1` [P-552, 3-[2-(3′-Chloro-2-fluoro-6-methoxy-biphenyl-3-ylmethyl)-5-trifluoromethyl-2H-pyrazol-3-yl]-pyridine hydrochloride salt], the IC50 is under 5 µM.

Turning to `NC(=O)Nc1ccc(Cc2ccc(OC3CNC3)c(-c3cccc(Cl)c3)c2)cc1` [P-554, {4-[6-(Azetidin-3-yloxy)-3′-chloro-biphenyl-3-ylmethyl]-phenyl}-urea], the IC50 was 5 to 20 µM.

Regarding `CN1CC[C@H](Oc2ccc(Cc3ccc(NC(N)=O)cc3)cc2-c2cccc(Cl)c2)C1` [P-556], the IC50 fell in the range of 5 to 20 µM.

Regarding `NC(=O)COc1ccc(Cc2ccc(NC(N)=O)cc2)cc1-c1cccc(Cl)c1` [P-557, 2-[3′-Chloro-5-(4-ureido-benzyl)-biphenyl-2-yloxy]-acetamide], the IC50 was under 5 µM.

Consider `COc1ccc(C(=O)c2ccc(N)cc2)cc1-c1cccc(Cl)c1` [P-558, (4-amino-phenyl)-(3′-chloro-6-methoxy-biphenyl-3-yl)-methanone], for which the IC50 is under 5 µM.

`COc1ccc(Cc2ccc(N3CCOCC3)nc2)cc1-c1cccc(Cl)c1` [P-572, 4-[5-(3′-chloro-6-methoxy-biphenyl-3-ylmethyl)-pyridin-2-yl]-morpholine]: the IC50 was under 5 µM.

In the case of `COc1ccc(COc2ccc(Br)cn2)c(F)c1-c1cccc(Cl)c1` [P-574], the IC50 was under 5 µM.

Regarding `COc1ccc(Cc2ccc(N3[C@@H](C)CC[C@@H]3C)nc2)c(F)c1-c1cccc(Cl)c1` [P-577, 5-(3′-Chloro-2-fluoro-6-methoxy-biphenyl-3-ylmethyl)-2-((2S,5S)-2,5-dimethyl-pyrrolidin-1-yl)-pyridine], the IC50 is under 5 µM.

As for `COc1ccc(C(=O)c2ccc(N)cc2)cc1-c1ccc(F)c(F)c1` [P-580], the IC50 was under 5 µM.

Take `COc1ccc(Cc2ccc(N3CCC[C@H]3C(C)(C)O)nc2)c(F)c1-c1cccc(Cl)c1` [P-581, 2-{(S)-1-[5-(3′-chloro-2-fluoro-6-methoxy-biphenyl-3-ylmethyl)-pyridin-2-yl]-pyrrolidin-2-yl}-propan-2-ol]: the IC50 is under 5 µM.

For the compound `[2H]C(O)(c1ccc(NC(N)=O)cc1)c1ccc(OC)c(-c2cccc(Cl)c2)c1` (stereo not drawn) [P-584], the IC50 lay in the range of 5 to 20 µM.

For `COc1ccc(COc2ccc(N3CCC3)nc2)c(F)c1-c1cccc(Cl)c1` [P-586], the IC50 was under 5 µM.

On to `COc1ccc(COc2ccc(NC(N)=O)cc2)c(F)c1-c1cccc(Cl)c1` [P-589], for which the IC50 was under 5 µM.

Turning to `COc1ccc(Cc2ccc(C(C)(C)N)nc2)c(F)c1-c1cccc(Cl)c1` [P-595, 1-[5-(3′-Chloro-2-fluoro-6-methoxy-biphenyl-3-ylmethyl)-pyridin-2-yl]-1-methyl-ethylamine], the IC50 is under 5 µM.

On to `COc1ccc(Cc2ccc(N3CCC(O)C3)nc2)c(F)c1-c1cccc(Cl)c1` (stereo not drawn) [P-601, 1-[5-(3′-chloro-2-fluoro-6-methoxy-biphenyl-3-ylmethyl)-pyridin-2-yl]-pyrrolidin-3-ol], for which the IC50 is under 5 µM.

Consider `COc1ccc(Cc2ccc(N3CCC(O)C3)nc2)cc1-c1cccc(Cl)c1` (stereo not drawn) [P-602, 1-[5-(3′-chloro-6-methoxy-biphenyl-3-ylmethyl)-pyridin-2-yl]-pyrrolidin-3-ol], for which the IC50 was under 5 µM.

Take `COc1ccc(COc2ccnc(N3CCCC3)c2)cc1-c1cccc(Cl)c1` [P-607]: the IC50 is under 5 µM.

In the case of `COc1ccc(COc2ccnc(N3CCCC3)c2)c(F)c1-c1cccc(Cl)c1` [P-608], the IC50 was under 5 µM.

Regarding `COc1ccc(Cc2ccc(C(C)N3CCC3)nc2)cc1-c1cccc(Cl)c1` (stereo not drawn) [P-609, 2-(1-azetidin-1-yl-ethyl)-5-(3′-chloro-6-methoxy-biphenyl-3-ylmethyl)-pyridine], the IC50 is under 5 µM.

`COc1ccc(Cc2ccc(C(C)NC(N)=O)nc2)c(F)c1-c1cccc(Cl)c1` (stereo not drawn) [P-613, {1-[5-(3′-Chloro-2-fluoro-6-methoxy-biphenyl-3-ylmethyl)-pyridin-2-yl]-ethyl}-urea hydrochloride]: the IC50 was under 5 µM.
